Test results taken from patent US12384798B2, “ACC inhibitor and use thereof” (NANJING RUIJIE PHARMA CO., LTD., priority 2019, dated 2025).
Like-named read-outs stand apart in the source and are kept apart here.

What was measured:
[1] = tested on: ACC1; conditions: ACC isolated from rat, mouse, monkey and human; cited from earlier work
[2] = tested on: ACC2; conditions: ACC isolated from rat, mouse, monkey and human; cited from earlier work
[3] = Pharmacokinetic evaluation of compounds in rats; format: in vivo; conditions: SD rats; for Kp / Vd / AUC(0-inf) / Cmax / Tmax / half-life / bioavailability: male, rat; for Kp: liver/plasma, liver collected 1 h, 3 h and 24 h after dosage, read-out: L/P liver-to-blood ratio; for Vd / AUC(0-inf) / Cmax / Tmax / half-life / bioavailability: plasma; for Vd: intravenous, 2 mg/kg, read-out: Vss; for bioavailability: read-out: F (%) bioavailability
Excerpt: This example was intended to investigate the pharmacokinetics of the compounds of the present invention and ND630 in SD rats under the conditions of intravenous (iv) and intragastric administration (po). Unless otherwise stated, the experimental reagents and instruments are all commercially available. ND630 was Gilead's acetyl CoA carboxylase (ACC) inhibitor, with a structural formula as follows: […]
Formulation of compound: by taking a physiological saline solution of 5% DMSO+5% Solutol HS 15+90% HP-β-CD (20% w/v) as a solvent, a compound with the final concentration of 0.4 mg/mL was formulated for intravenous administration and a compound with the final concentration of 1 mg/mL was formulated for orally intragastric administration.
Animal feeding and management: male SD rats aged 6-8 weeks and weighing between 180-250 g were selected and raised in transparent resin plastic rate cages. Before administration, the rats were fasted overnight for at least 16 hours, and the feed supply was restored 4 hours after administration.
For the intravenous injection administration group, the dose was 2 mg/kg, and 0.2 mL of blood samples was collected from the jugular vein 5 min, 15 min, 30 min, 1 h, 3 h, 5 h, and 8 h after dosage. For the orally intragastric administration group, the dose was 10 mg/kg, and 0.2 mL of blood samples was collected from the jugular vein 15 min, 30 min, 1 h, 3 h, 5 h, 8 h, 12 h, and 24 h after dosage; and liver tissues were collected 1 h, 3 hand 24 h after dosage.
After the blood were sampled, the plasma was quickly separated by centrifugation at 4000 rpm (10 minutes, 4° C.). After the liver tissues were sampled, a mixture of methanol:water (1:1, v/v) three times the volume of the liver tissues was added to prepare a homogenate. 50 μL of plasma or homogenate sample was drawn, and 200 μL of an internal standard (30 ng/mL terfenadine, and acetonitrile) was added for precipitation. Centrifuging was carried out at 4° C. and 15,400 g for 10 minutes, and a supernatant was taken for analysis.
The concentration of a target compound was detected by LC-MS/MS. According to the plasma concentration-time curve, pharmacokinetic parameters were calculated by using a non-compartmental model (NCA) of software WinNonlin 7.0. […] Table 4. Pharmacokinetic results

[4] = tested on: HepG2 cells; experiment: [2-14C]-acetate incorporation assay in HepG2 cells; format: cell-based; conditions: for IC50: Homo sapiens, HepG2 cells, read-out: IC50 [2-14C]-acetate binding assay
Method: [2-^14C]-Acetate Incorporation Assay in HepG2 Cells
DMEM (GIBCO, catalog number: 11965-092) was used as a complete culture medium for HepG2 cells (ATCC, catalog number: HB-8064). 10% fetal bovein serum (FBS, GIBCO, catalog number: 10099-141), penicillin (100 units/mL) and streptomycin (100 μg/mL) (Pen/Strep, GIBCO, catalog number: 15140-122) were added to a DMEM culture medium.
HepG2 cells were cultured in a 37° C. incubator holding 5% carbon dioxide, and passaged every 2-3 days.
The HepG2 cells were spread on a 24-well plate (Corning, catalog number: 3524) at a density of 2×10^5 cells-well, 500 μL per well, and cultured in a 37° C. incubator holding 5% carbon dioxide. On the fourth day of culture, 50 μL of a compound diluted at a gradient of 1:3 was added, with the final concentration of DMSO of 0.5% (v/v); and the cells were cultured for 1 hour in the incubator. 1 μCi [2-^14C]-sodium acetate (Perkin Elmer, catalog number: NEC085H001MC) was added to each well, and culture was conducted for another 5 hours. The culture medium in each well was transferred to a 15 mL centrifugal tube (BD, catalog number: 352096); 0.5 mL of 0.1 M NaOH was added; the cells were blown and washed repeatedly, and then transferred to new centrifugal tubes. Then, 1 mL of ethanol and 0.17 mL of 50% KOH solution were added to each centrifugal tube, which was then treated in a water bath at 90° C. for 1 hour. Next, the mixture was cooled to room temperature; 5 mL of petroleum ether was added to each centrifugal tube, which was turned upside down several times for mixing; the resulting mixture was centrifuged for 5 minutes (Eppendorf, Model: 5702, 1000 rpm); and an upper organic phase was discarded. 1 mL of concentrated hydrochloric acid was added to each centrifugal tube and centrifuged for 5 minutes, and 4 mL of petroleum ether was transferred into a glass tube (18×180 mm). The sample in the glass tube was dried at 64° C., and then dissolved and resuspended by addition of 400 μL of spotting solution (chloroform:n-hexane=1:1). 50 μL of the dissolved sample was drawn by a pipette (BIOHIT, Model: Proline Plus), and spotted onto an Isoplate-96-microwell plate (Perkin Elmer, catalog number: 6005040), and 200 μL of ULTIMA GOLD scintillation solution (Perkin Elmer, catalog number: 77-16061) was added, standing for 5 minutes. Finally, MicroBeta (PerkinElmer, Model: 2450) was used to read scintillation signals.
A 4-parameter logistic model or sigmoidal dose-response model in XLFit 5.3.1.3 (2006-2011 I D Business Solutions Limited) was used to fit IC50: fit=(A+((B−A)/(1+((C/x)^D)))); where the x-axis represented the log of compound concentration, and the y-axis represented count per minute (CPM).

[5] = target: ACC1 (Homo sapiens (Human), UniProt Q13085); experiment: In vitro ACC inhibition assay (ADP-Glo), ACC1; format: biochemical; conditions: for IC50: 0.5 nM ACC, 10 μM ATP, 5 μM acetyl-CoA, read-out: Enzymatic activity IC50 ACC1
Method: (§1) An exemplary procedure for the in vitro ACC inhibition assay, which can be used to determine the inhibitory action of the compounds of the invention toward either ACC1 or ACC2, is as follows. The ADP-Glo™ kinase assay kit from Promega was used. The ADP-Glo™ kinase assay is a luminescent ADP detection assay to measure enzymatic activity by quantifying the amount of ADP produced during an enzyme reaction. The assay was performed in two steps; first, after the enzyme reaction, an equal volume of ADP-Glo™ reagent was added to terminate the reaction and deplete the remaining ATP. Then, the kinase detection reagent was added to simultaneously convert ADP to ATP and allow the newly synthesized ATP to be measured using a luciferase/luciferin reaction. Luminescence can be correlated to ADP concentrations by using an ATP-to-ADP conversion curve. The detailed procedure was as follows. 4.5 μL of a working solution was added to a 384-well plate. The compound was diluted at 1:3 in succession in DMSO. 0.5 μL of diluted compound solution was added to a 384-well white Optiplate assay plate. The plates were incubated at room temperature for 15 minutes. 5 μL of substrate working solution was added to each well to initiate the reaction. A final ACC reaction solution consisted of: 0.5 nM ACC, 10 μM ATP, 5 μM acetyl-CoA, and 15 mM NaHCO3; and the final concentrations of the compound were measured as follows: 1 μM, 0.333 μM, 0.111 μM, 0.037 μM, 0.0123 μM, 0.00411 μM, 0.00137 μM, 0.000457 μM, 0.000152 μM, and 0.000051 μM. The plates were incubated at room temperature for 30 minutes. 10 μL of ADP-Glo™ reagent was added, and the plates were incubated at room temperature for 40 minutes. 20 μL of kinase detection reagent was added. The plates were incubated at room temperature for 40 minutes, then read on a Perkin Elmer EnVision 2104 plate reader for luminescence in relative light unit (RLU).
(§2) Data for each concentration, as well as the positive and negative controls were averaged, and the standard deviation was calculated. Percent inhibition was calculated by the formula: 100×(average negative control−compound)/(average negative control−average positive control). The IC50 for each compound was calculated by fitting the data with a non-linear regression equation: Y=Bottom+(Top−Bottom)/(1+10^((Log IC50−X)×HillSlope)), where X is the log of compound concentration and Y is the percent inhibition.

[6] = target: ACC2 (Homo sapiens (Human), UniProt O00763); experiment: In vitro ACC inhibition assay (ADP-Glo), ACC2; format: biochemical; conditions: for IC50: 0.5 nM ACC, 10 μM ATP, 5 μM acetyl-CoA, read-out: Enzymatic activity IC50 ACC2
ACC2 (Homo sapiens (Human), UniProt O00763), sequence (O00763 whole entry, species assumed): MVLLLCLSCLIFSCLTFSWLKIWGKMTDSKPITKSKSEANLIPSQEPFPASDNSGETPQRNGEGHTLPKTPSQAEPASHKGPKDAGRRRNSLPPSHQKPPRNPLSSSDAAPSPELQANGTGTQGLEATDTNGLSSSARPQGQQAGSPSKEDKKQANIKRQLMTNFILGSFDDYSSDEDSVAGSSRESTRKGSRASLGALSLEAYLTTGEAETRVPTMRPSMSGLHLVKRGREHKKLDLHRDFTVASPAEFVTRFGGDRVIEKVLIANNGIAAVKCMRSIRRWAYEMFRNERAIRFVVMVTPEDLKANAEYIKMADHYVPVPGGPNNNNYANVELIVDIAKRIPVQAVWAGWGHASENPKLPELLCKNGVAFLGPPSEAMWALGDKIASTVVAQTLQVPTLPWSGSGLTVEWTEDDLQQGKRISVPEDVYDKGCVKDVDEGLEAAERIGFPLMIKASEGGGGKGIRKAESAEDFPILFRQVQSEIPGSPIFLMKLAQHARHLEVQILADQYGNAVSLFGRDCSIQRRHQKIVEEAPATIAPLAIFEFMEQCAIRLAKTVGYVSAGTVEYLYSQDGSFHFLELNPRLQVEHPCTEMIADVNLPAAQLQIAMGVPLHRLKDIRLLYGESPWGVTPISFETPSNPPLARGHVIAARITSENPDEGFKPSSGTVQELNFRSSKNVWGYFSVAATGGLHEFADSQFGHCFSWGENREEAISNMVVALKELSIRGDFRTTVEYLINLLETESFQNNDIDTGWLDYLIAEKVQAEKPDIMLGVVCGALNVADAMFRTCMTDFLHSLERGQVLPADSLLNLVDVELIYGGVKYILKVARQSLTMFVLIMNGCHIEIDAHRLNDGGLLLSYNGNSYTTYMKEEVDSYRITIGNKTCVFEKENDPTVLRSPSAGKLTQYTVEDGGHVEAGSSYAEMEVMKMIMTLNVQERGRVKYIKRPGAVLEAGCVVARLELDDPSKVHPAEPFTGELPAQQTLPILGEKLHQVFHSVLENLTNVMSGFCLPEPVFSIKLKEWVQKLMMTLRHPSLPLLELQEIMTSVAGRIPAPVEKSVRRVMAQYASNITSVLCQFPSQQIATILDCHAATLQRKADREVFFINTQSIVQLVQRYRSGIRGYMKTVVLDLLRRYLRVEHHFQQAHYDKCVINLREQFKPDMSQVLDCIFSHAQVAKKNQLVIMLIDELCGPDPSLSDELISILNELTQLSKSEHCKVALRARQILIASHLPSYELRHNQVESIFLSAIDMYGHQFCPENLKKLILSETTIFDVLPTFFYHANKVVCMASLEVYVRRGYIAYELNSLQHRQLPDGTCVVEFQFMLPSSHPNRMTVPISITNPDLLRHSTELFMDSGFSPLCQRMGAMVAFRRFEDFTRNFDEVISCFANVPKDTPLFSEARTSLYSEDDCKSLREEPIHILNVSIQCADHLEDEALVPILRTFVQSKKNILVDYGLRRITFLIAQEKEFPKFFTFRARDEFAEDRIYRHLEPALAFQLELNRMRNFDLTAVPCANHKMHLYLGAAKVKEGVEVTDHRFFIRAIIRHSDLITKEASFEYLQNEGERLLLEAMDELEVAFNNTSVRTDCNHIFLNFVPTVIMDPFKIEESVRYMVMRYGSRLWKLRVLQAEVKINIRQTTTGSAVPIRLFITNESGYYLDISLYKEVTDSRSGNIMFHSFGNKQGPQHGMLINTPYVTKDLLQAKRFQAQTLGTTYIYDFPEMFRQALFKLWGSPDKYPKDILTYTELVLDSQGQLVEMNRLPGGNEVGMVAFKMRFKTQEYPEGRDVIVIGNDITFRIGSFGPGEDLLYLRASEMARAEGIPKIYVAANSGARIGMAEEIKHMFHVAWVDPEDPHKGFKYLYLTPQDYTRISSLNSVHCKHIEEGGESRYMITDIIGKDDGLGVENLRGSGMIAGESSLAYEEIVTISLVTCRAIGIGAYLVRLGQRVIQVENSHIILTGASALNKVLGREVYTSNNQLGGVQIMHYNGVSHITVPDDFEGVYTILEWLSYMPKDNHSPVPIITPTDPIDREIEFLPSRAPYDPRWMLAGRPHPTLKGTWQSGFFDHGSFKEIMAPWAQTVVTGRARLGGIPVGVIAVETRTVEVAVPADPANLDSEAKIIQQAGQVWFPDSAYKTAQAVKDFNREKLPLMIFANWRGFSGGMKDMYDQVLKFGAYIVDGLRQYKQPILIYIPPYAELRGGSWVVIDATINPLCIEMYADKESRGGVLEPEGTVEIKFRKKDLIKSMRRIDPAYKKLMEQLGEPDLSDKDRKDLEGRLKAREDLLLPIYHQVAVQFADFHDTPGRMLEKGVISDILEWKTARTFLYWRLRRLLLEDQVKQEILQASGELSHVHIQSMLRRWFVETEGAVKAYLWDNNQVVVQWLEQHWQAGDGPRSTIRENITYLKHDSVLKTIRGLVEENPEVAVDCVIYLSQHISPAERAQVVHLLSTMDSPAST
Method: as §1, §2

[7] = iv 2 mg/kg, read-out: AUC0-∞ (iv)
[8] = iv 2 mg/kg, read-out: Cmax (iv)
[9] = iv 2 mg/kg, read-out: Tmax (iv)
[10] = iv 2 mg/kg, read-out: t1/2 (iv) (converted)
[11] = po 10 mg/kg, read-out: AUC0-∞ (po)
[12] = po 10 mg/kg, read-out: Cmax (po)
[13] = po 10 mg/kg, read-out: Tmax (po)
[14] = po 10 mg/kg, read-out: t1/2 (po) (converted)

SMILES | Cl [3] | Kp ([3]; po 10 mg/kg) | Vd [3] | AUC(0-inf) [3, 7] | Cmax [3, 8] | Tmax [3, 9] | half-life [3, 10] | AUC(0-inf) [3, 11] | Cmax [3, 12] | Tmax [3, 13] | half-life [3, 14] | bioavailability ([3]; po 10 mg/kg, iv 2 mg/kg) | IC50 [4] | inhibitory properties against ACC1 (in words) [5] | IC50 [5] | inhibitory properties against ACC2 (in words) [6] | IC50 [6] | IC50 [1] | IC50 [2] | inhibitory properties against HepG2 cells (in words) [4]
O=C(c1c2ccccc2cc2ccccc12)N1CCC(N2CCC[C@@H](C(=O)N3CCOCC3)C2)CC1 [CP-640186] |  |  |  |  |  |  |  |  |  |  |  |  |  |  |  |  |  | ~60 nM | ~60 nM | 
COc1ccccc1[C@H](Cn1c(=O)n(CC2CC(C(=O)O)C2)c(=O)c2c(C)c(-c3ncco3)sc21)OC1CCOCC1 (stereo partly drawn) [c-1, (R)-3-((1-(2-(2-methoxyphenyl)-2-((tetrahydro-2H-pyran-4-yl)oxy)ethyl)-5-methyl-6-(oxazol-2-yl)-2,4-dioxa-1,4-dihydrothieno[2,3-d]pyrimidine-3(2H)-yl)methyl)cyclobutane-1-carboxylic acid] |  |  |  |  |  |  |  |  |  |  |  |  | 232 nM |  |  |  |  |  |  | 
COc1ccccc1[C@H](Cn1c(=O)n(C2CC(CC(=O)O)C2)c(=O)c2c(C)c(-c3ncco3)sc21)OC1CCOCC1 (stereo partly drawn) [c-3, (R)-2-(3-(1-(2-(2-methoxyphenyl)-2-((tetrahydro-2H-pyran-4-yl)oxy)ethyl)-5-methyl-6-(oxazol-2-yl)-2,4-dioxo-1,4-dihydrothieno[2,3-d]pyrimidine-3(2H)-yl)cyclobutyl)acetic acid] |  |  |  |  |  |  |  |  |  |  |  |  | 18.5 nM | good inhibitory properties | 0.688 nM | good inhibitory properties | 3 nM |  |  | good inhibitory properties

More lines, main results first:

Cl [3] | Kp ([3]; po 10 mg/kg) | Vd [3] | AUC(0-inf) [3, 7] | Cmax [3, 8] | Tmax [3, 9] | half-life [3, 10] | AUC(0-inf) [3, 11] | Cmax [3, 12] | Tmax [3, 13] | half-life [3, 14] | bioavailability ([3]; po 10 mg/kg, iv 2 mg/kg) | IC50 [4] | inhibitory properties against ACC1 (in words) [5] | IC50 [5] | inhibitory properties against ACC2 (in words) [6] | IC50 [6] | SMILES | IC50 [1] | IC50 [2] | inhibitory properties against HepG2 cells (in words) [4]
12.2 mL/min/kg | 5.5 to 41.9 | 0.48 L/kg | 2870 ng·h/mL | 5630 ng/mL | 4.98 min | 63.6 min | 5090 ng·h/mL | 2880 ng/mL | 24 min | 39 min | 35.8% |  |  |  |  |  | COc1ccccc1[C@H](Cn1c(=O)n(C(C)(C)C(=O)O)c(=O)c2c(C)c(-c3ncco3)sc21)OC1CCOCC1 [ND630, reference compound] |  |  | 
10.7 mL/min/kg | 9.46 to 17.3 | 0.826 L/kg | 3120 ng·h/mL | 4100 ng/mL | 5 min | 104 min | 15700 ng·h/mL | 7780 ng/mL | 30 min | 279 min | 99.6% | 13.1 nM | good inhibitory properties | 0.836 nM | good inhibitory properties | 9 nM | COc1ccccc1[C@H](Cn1c(=O)n([C@H]2C[C@H](CC(=O)O)C2)c(=O)c2c(C)c(-c3ncco3)sc21)OC1CCOCC1 [c-3-1, 2-((1R,3r)-3-(1-((R)-2-(2-methoxyphenyl)-2-((tetrahydro-2H-pyran-4-yl)oxy)ethyl)-5-methyl-6-(oxazol-2-yl)-2,4-dioxo-1,2-dihydrothieno[2,3-d]pyrimidine-3(4H)-yl)cyclobutyl)acetic acid] |  |  | good inhibitory properties
25.1 mL/min/kg | 20.6 to 30 | 0.839 L/kg | 1390 ng·h/mL | 3110 ng/mL | 5 min | 54 min | 4350 ng·h/mL | 3240 ng/mL | 24 min | 289 min | 62.3% | 18 nM | good inhibitory properties | 1.12 nM | good inhibitory properties | 8 nM | COc1ccccc1[C@H](Cn1c(=O)n([C@H]2C[C@@H](CC(=O)O)C2)c(=O)c2c(C)c(-c3ncco3)sc21)OC1CCOCC1 [c-3-2, 2-((1S,3s)-3-(1-((R)-2-(2-methoxyphenyl)-2-((tetrahydro-2H-pyran-4-yl)oxy)ethyl)-5-methyl-6-(oxazol-2-yl)-2,4-dioxo-1,2-dihydrothieno[2,3-d]pyrimidine-3(4H)-yl)cyclobutyl)acetic acid] |  |  | good inhibitory properties
